Results: publication PMC5494507, “γ‐Secretase inhibitors in cancer clinical trials are pharmacologically and functionally distinct” (EMBO Molecular Medicine, 2017)
Entries after “also recorded” stand apart in the source; their conditions may differ. Read-outs that look alike come from different tables or passages of the source.

Legend:
[1] = tested on: rC100sub and rNOTCH1sub; test: Cell-free γ-secretase assay, rC100sub and rNOTCH1sub (Appendix Fig S1); assay type: biochemical
Method: Although not suited for detailed dose–response studies due to challenges in precise quantification of the cleavage products, we nevertheless conducted several studies to examine how different GSIs affect cleavage in the cell‐free assay. […] We also evaluated a previously reported Notch‐sparing GSI, Avagacestat (BMS‐708163) (Gillman et al, 2010; Albright et al, 2013) using this assay (Appendix Fig S1).
CHAPSO‐solubilized CHO cell membrane was prepared as described in previous report. 25 μg/ml of each substrate was incubated with the membrane (100 μg/ml total protein) in sodium citrate buffer (150 mM, pH 6.5, Roche Complete protease inhibitor added) for 2 h at 37°C. […] The reaction was terminated by placing tubes on ice until immunoprecipitation.
Immunoprecipitation and mass spectrometry of Aβ and Aβ‐like peptides in cell‐free assay or conditioned media were performed as previously described (Ran et al, 2014). Briefly, the peptides were immunoprecipitated using anti‐Aβ Ab5 antibody bound to sheep anti‐mouse IgG magnetic Dynabeads (Life Technologies) and eluted with 0.1% trifluoroacetic acid (TFA) in water. COOH‐terminal fragments (CTFs) were immunoprecipitated with anti‐FLAG M2 magnetic beads (Sigma). […] Samples were analyzed using a Bruker Microflex LRF‐MALDI‐TOF mass spectrometer.

[2] = tested on: cNOTCH1sub; test: Cell-based γ-secretase cleavage assay, cNOTCH1sub in H4 cells (Aβ-like peptide ELISA); parameters: species or system human; conditions: Aβ-like peptide in media, GSI overnight
Method: (§1) Using these cell‐based γ‐secretase cleavage assays, we systematically investigated the substrate inhibition profile of BMS‐906024, MK‐0752, PF‐308414, RO4929097, Semagacestat, and DAPT. We treated H4 cells stably expressing cNOTCH1‐4sub with 4 pM to 10 μM of GSIs (Fig 5A and Table 2) and measured the Aβ‐like peptide secreted into the media.
(§2) For the cell‐based assay, all substrates contain a human NOTCH4 signal peptide sequence ([…]), amyloid β peptide (Aβ1–25/K16A) epitope tag followed by the juxtamembrane region (JMD) of the given substrate and a FLAG tag ([…]) at the COOH‐terminal. K16A mutant was created to decrease potential α‐secretase cleavage. The cDNAs were generated by gene synthesis conducted by Genscript. A schematic representation of the substrates is provided in Fig 4A, and sequences of the cDNAs and the proteins are provided in Appendix Fig S6. For clarity, these substrates are referred to as cell‐based assay substrates (e.g., NOTCH1 is cNOTCH1sub). Substrate cDNAs were cloned into pCDNA3.1 (Invitrogen, Carlsbad, CA, USA) for expression in H4 cells (ATCC, Manassas, VA).
(§3) H4 cells were cultured in Opti‐mem media (Thermo‐Fisher) supplemented with Hyclone 6% fetal bovine serum (GE, Logan, Utah, USA) and 1% penicillin/streptomycin (Life Technologies, Grand Island, NY, USA). pCDNA3.1 plasmids containing the substrate cDNAs were transfected into H4 cells using FuGENE HD reagent (Madison, WI, USA). Stable cell lines were established using G418 selection. […] Cells and conditioned media were used for WB, IP, and ELISA.
(§4) Sandwich ELISAs used for Aβ detection were performed as previously described (Murphy et al, 1999; Ran et al, 2014). Briefly, Aβ and Aβ‐like peptides in conditioned media were captured with Ab5 antibody and detected with horseradish peroxidase labeled mAb 4G8 (Biolegend). Synthetic Aβ1‐40 was used as standard. All ELISAs were developed with TMB substrate (KPL, Gaithersburg, Maryland, USA). Bis‐Tris precast gels (Biorad, Hercules, CA, USA) were used for all SDS–PAGE. Monoclonal anti‐FLAG M2 antibody (Sigma) and Aβ1‐16 antibody 6E10 (Covance) were used for Western blotting at 1:1,000 dilution. Anti‐CD74 In‐1 antibody (BD Bioscience, San Jose, CA, USA) was used for A20 cell lysate Western blotting at dilution of 1:1,000. MDA‐MB‐231 cell extracts were prepared by lysing cells in RIPA buffer containing protease and phosphatase inhibitors. The lysates were kept on ice for 30 min and vortexed every 10 min, and then centrifuged at 4°C for 10 min at 1,000 g. The supernatants were collected, and protein concentrations were determined by Bradford Assay. Pan‐NOTCH1 antibody (C‐20) (Santa Cruz Biotechnology) and cleaved NOTCH1 (Val1744) antibody (Developmental Studies Hybridoma Bank) were used at 1:500 and 1:100 dilution in the test of endogenous NOTCH1 inhibition with β‐actin expression used as loading control. β‐actin antibody was used at 1:1,000 dilution (Sigma). Band intensities normalized for actin using densitometry analysis with ImageJ Software (NIH, USA).

[3] = target: cNOTCH2sub (Homo sapiens, UniProt P49768); test: Cell-based γ-secretase cleavage assay, cNOTCH2sub in H4 cells (Aβ-like peptide ELISA); conditions: rank among the six GSIs, number in brackets
Method: as §1, §2, §3, §4

[4] = tested on: cNOTCH3sub; test: Cell-based γ-secretase cleavage assay, cNOTCH3sub in H4 cells (Aβ-like peptide ELISA); parameters: species or system human
Method: as §1, §2, §3, §4

[5] = tested on: cNOTCH4sub; test: Cell-based γ-secretase cleavage assay, cNOTCH4sub in H4 cells (Aβ-like peptide ELISA); parameters: species or system human; conditions: Aβ-like peptide in media, GSI overnight
Method: as §1, §2, §3, §4

[6] = tested on: cAPPC100sub; test: Cell-based γ-secretase cleavage assay, cAPPC100sub stably overexpressing cells (Aβ ELISA)
Excerpt: (§5) We next tested all GSIs on cAPPC100sub and full‐length APP stably overexpressing cells. […] The low‐dose potentiation of γ‐secretase cleavage was further mechanistically probed using in vitro assays with recombinant substrates and IP‐MS.
as §2, §3, §4

[7] = tested on: full‐length APP; test: Cell-based γ-secretase cleavage assay, full-length APP stably overexpressing cells (Aβ ELISA)
Method: as §5, §3, §4

[8] = tested on: cNOTCH1‐4sub; test: Average of cell-based IC50s on cNOTCH1-4sub in H4 cells; parameters: species or system human; conditions: read-out: Average IC50s of each GSI on cNOTCH1‐4sub
Method: as §1, §2, §3, §4

[9] = tested on: NOTCH1; test: Endogenous NOTCH1 cleavage inhibition in MDA-MB-231 cells (NICD Western blot after EDTA activation); assay type: cell-based; conditions: MDA-MB-231, 100 nM to 12.5 μM, 1 h pretreatment then 5 mM EDTA 5 min
Method: (§6) To extend the study to a more physiological system, we assessed endogenous NOTCH1 cleavage inhibition using the triple‐negative breast cancer line MDA‐MB‐231 (Fig 6A). Full‐length blots are shown in source data for Fig 6. NOTCH1 cleavage was detected by Western blotting using the Cell Signaling neo‐epitope NICD antibody. […] The inhibition of endogenous APP in MDA‐MB‐231 cells was also tested by detecting accumulation of APP COOH‐terminal fragments (APP‐CTFs). […] Figure 6D summarized the APP‐CTF band intensities normalized for DMSO group. The original blots are available in source data for Fig 6.
Short‐term endogenous NOTCH1 cleavage inhibition was tested in the triple‐negative breast cancer cell lines MDA‐MB‐231 (ATCC, Manassas, VA). Cells were plated in 60 mm dishes and maintained as monolayer cultures in DMEM medium supplemented with 10% FBS, 1% penicillin/streptomycin, 1% L‐glutamine (Life Technologies), and incubated at 37°C in a humidified 5% CO2 incubator. After the cells reached ~75% confluency, cultures were pretreated with GSIs for 1 h in DMEM at 37°C in a 5% CO2 incubator. GSIs were tested at concentrations of 0, 0.1, 0.5, 2.5, and 12.5 μM. Then, EDTA (5 mM, Life Technologies) was added to the cell cultures to induce Notch activation for 5 min. Following incubation, cell extracts were prepared by lysing cells in RIPA buffer (Santa Cruz Biotechnology) containing protease and phosphatase inhibitors. Western blotting was performed using Cleaved NOTCH1 (Val1744) antibody (Cell Signaling) with β‐actin (Santa Cruz Biotechnology) as loading control. Band intensities were normalized for actin using ImageJ Software (NIH, USA).
as §4

[10] = tested on: APP; test: Endogenous APP-CTF accumulation in MDA-MB-231 cells (Western blot); assay type: cell-based
Method: as §6
Values are mean ± SD of three tests. • APP‐CTF Western blot of MDA‐MB‐231 cells treated with indicated concentration of GSIs for 16 h. • Band intensities of APP‐CTF with 0.1 μM GSIs were normalized for DMSO control group. Values are mean ± SD of three tests. Data information: Original blots are provided as source data. All band intensity data are derived from three independent experiments and are analyzed by one‐way ANOVA using GraphPad Prism6 software. All experiments were repeated three times.Source data are available online for this figure.

[11] = tested on: cNOTCH1‐4sub and cAPPC100sub; test: Substrate accumulation in H4 cells stably expressing cNOTCH1-4sub and cAPPC100sub (Western blot); assay type: cell-based, human; conditions: for substrate accumulation (Western blot), other GSIs tried beside DAPT: authors' response, concentration not given
Method: In order to enable us to more definitively characterize the effects of various GSIs on different substrates, we generated H4 cells stably expressing cNOTCH1‐4sub and cAPPC100sub (Fig 4A). Chimeric substrates were detected by WB using anti‐FLAG antibody (Fig 4B). Multiple CTFs are detectable as well as potential dimers for all substrates. Multiple NTF are also detectable using anti‐Aβ 6E10 antibody (Appendix Fig S2) for cNOTCH1, 3, and 4 substrates.
as §3
as §4, with “Pan‐NOTCH1 antibody (C‐20) (Santa Cruz Biotechnology) and cleaved NOTCH1 (Val1744) antibody (Developmental Studies Hybridoma Bank) were used at 1:500 and 1:100 dilution in the test of endogenous NOTCH1 inhibition with β‐actin expression used as loading control. β‐actin antibody was used at 1:1,000 dilution (Sigma). Band intensities normalized for actin using densitometry analysis with ImageJ Software (NIH, USA).” left out

[12] = tested on: Aβ40; parameters: method as in ref Appendix Table S1 (Gavai et al, 2015; Dovey et al, 2001; Cook et al, 2010; Krop et al, 2012; Wei et al, 2010; Luistro et al, 2009; Mitani et al, 2012); conditions: ref Appendix Table S1 (Gavai et al, 2015; Dovey et al, 2001; Cook et al, 2010; Krop et al, 2012; Wei et al, 2010; Luistro et al, 2009; Mitani et al, 2012); read-out: Reported IC50s Aβ40; cited from earlier work
[13] = tested on: SPP; parameters: method as in Weihofen et al, 2003; conditions: concentration up to 100 μM; ref Weihofen et al, 2003; cited from earlier work
[14] = target: γ‐secretase (Homo sapiens, UniProt P49768); conditions: quoted in parentheses in the authors' response, no assay and reference not given; cited from earlier work
[15] = tested on: cNOTCH1‐4sub and cAPPC100sub; test: Secretion of Aβ-like peptides from cNOTCH1-4sub and cAPPC100sub H4 cells (ELISA, IP-MS); assay type: cell-based, human
Method: The secreted Aβ‐like peptides can be detected using Aβ ELISA method.
as §3
Immunoprecipitation and mass spectrometry of Aβ and Aβ‐like peptides in cell‐free assay or conditioned media were performed as previously described (Ran et al, 2014). Briefly, the peptides were immunoprecipitated using anti‐Aβ Ab5 antibody bound to sheep anti‐mouse IgG magnetic Dynabeads (Life Technologies) and eluted with 0.1% trifluoroacetic acid (TFA) in water. […] Samples were analyzed using a Bruker Microflex LRF‐MALDI‐TOF mass spectrometer.
Sandwich ELISAs used for Aβ detection were performed as previously described (Murphy et al, 1999; Ran et al, 2014). Briefly, Aβ and Aβ‐like peptides in conditioned media were captured with Ab5 antibody and detected with horseradish peroxidase labeled mAb 4G8 (Biolegend). […] The supernatants were collected, and protein concentrations were determined by Bradford Assay. […]

## NC(=O)[C@@H](CCC(F)(F)F)N(Cc1ccc(-c2ncon2)cc1F)S(=O)(=O)c1ccc(Cl)cc1 [Avagacestat]
[1]
  inhibition of APP versus Notch cleavage: inhibit APP and Notch cleavage equivalently

## C[C@H](NC(=O)Cc1cc(F)cc(F)c1)C(=O)N[C@H](C(=O)OC(C)(C)C)c1ccccc1 [DAPT]
[2]
  IC50: 4.9 nM
[3]
  rank order of inhibition of cNOTCH2sub: [6]
[4]
  effect on cNOTCH3sub cleavage at low concentrations: potentiate
[4]; Aβ-like peptide in media, GSI overnight, read-out: IC50 cNOTCH3sub
  IC50: 624 nM
[4]; value in parentheses, read-out: IC50 cNOTCH3sub, from curves excluding the Aβ level > 120%
  IC50: 265 nM
[5]
  IC50: 51.5 nM
[6]; stably overexpressing cells, Aβ ELISA, read-out: IC50 cC100sub
  IC50: 360 nM
[6]; value in parentheses, read-out: IC50 cC100sub, from curves excluding the Aβ level > 120%
  IC50: 212 nM
[7]; full-length APP overexpressing cells
  low-dose potentiation of cleavage, APP: low‐dose potentiation of cleavage was observed
[7]; full-length APP stably overexpressing cells, Aβ ELISA
  IC50: 32.7 nM
[8]
  IC50: 191 nM
[9]
  NICD levels: did not suppress NICD levels to baseline levels at any concentrations
[10]; MDA-MB-231 (231 cells), 100 nM, triplicate
  APP CTF level / accumulation at 100 nM: hard to see; also recorded: did not significantly increase CTF level
[10]; MDA-MB-231, 16 h
  concentration from which APP‐CTF process is inhibited: ≥ 500 nM
[11]; 1 μM treatment, H4 cells
  substrate accumulation (Western blot): did not result in significant substrate accumulation except for cAPPC100sub
[12]
  IC50: 20 nM
[13]
  effect on SPP activity: no effect

## CC(C)C[C@H](NC(=O)[C@H](Cc1ccccc1)C[C@@H](O)[C@H](Cc1ccccc1)NC(=O)OC(C)(C)C)C(=O)N[C@@H](Cc1ccccc1)C(N)=O [L685458]
[11]
  substrate accumulation (Western blot), other GSIs tried beside DAPT: only cAPPC100 show some accumulation
[14]
  IC50: 17 nM

## C[C@H](NC(=O)[C@@H](O)c1cc(F)cc(F)c1)C(=O)N[C@@H]1C(=O)N(C)c2ccccc2-c2ccccc21 [LY411575, N2‐[(2S)‐2‐(3,5‐difluorophenyl)‐2‐hydroxyethanoyl]‐N1‐[(7S)‐5‐methyl‐6‐oxo ‐6,7‐dihydro‐5H‐dibenzo[b,d]azepin‐7‐yl]‐L‐alaninamide]
[11]
  substrate accumulation (Western blot), other GSIs tried beside DAPT: only cAPPC100 show some accumulation
[15]; 1 μM
  Aβ-like peptides in culture media (IP-MS): abolished all production
[15]; 1 μM applied to cell cultures
  secretion of Aβ-like peptides (ELISA): almost completely inhibited
